Numbers after ± are expanded uncertainties.
Assay: molar heat capacity at constant pressure
Details: 101.33 kPa, Liquid, Vacuum adiabatic calorimetry

CCCCn1cc[n+](C)c1.F[B-](F)(F)F [1-butyl-3-methylimidazolium tetrafluoroborate]
Details | molar heat capacity at constant pressure [J/K/mol]
189.66 K | 332 ± 0.5
191.85 K | 332.1 ± 0.5
194.05 K | 332.1 ± 0.5
196.25 K | 332.7 ± 0.5
198.46 K | 332.8 ± 0.5
200.67 K | 333.2 ± 0.5
202.89 K | 333.7 ± 0.5
205.12 K | 334 ± 0.5
207.35 K | 334.5 ± 0.5
209.58 K | 335 ± 0.5
211.82 K | 335.5 ± 0.5
214.06 K | 335.9 ± 0.5
216.3 K | 336.8 ± 0.5
218.55 K | 337.2 ± 0.5
220.8 K | 337.8 ± 0.5
223.05 K | 338.8 ± 0.5
225.31 K | 339.2 ± 0.5
227.56 K | 339.9 ± 0.5
229.82 K | 340.4 ± 0.5
232.09 K | 340.9 ± 0.5
236.62 K | 342.8 ± 0.5
238.89 K | 343.3 ± 0.5
241.18 K | 344.4 ± 0.5
243.46 K | 345.4 ± 0.5
245.73 K | 345.8 ± 0.5
248.01 K | 346.6 ± 0.5
250.29 K | 347.5 ± 0.6
252.57 K | 348.5 ± 0.6
254.85 K | 349 ± 0.6
257.13 K | 350.2 ± 0.6
259.41 K | 351 ± 0.6
261.7 K | 351.4 ± 0.6
263.98 K | 352.6 ± 0.6
266.27 K | 353.5 ± 0.6
268.56 K | 354.6 ± 0.6
270.84 K | 355.7 ± 0.6
273.13 K | 356.4 ± 0.6
275.42 K | 357.4 ± 0.6
277.72 K | 358.3 ± 0.6
280.02 K | 359.2 ± 0.6
282.31 K | 360.2 ± 0.6
284.6 K | 361.6 ± 0.6
286.89 K | 362.1 ± 0.6
289.17 K | 363.3 ± 0.6
291.46 K | 364.2 ± 0.6
293.74 K | 365.4 ± 0.6
296.02 K | 366.3 ± 0.6
298.3 K | 367 ± 0.6
300.57 K | 368.2 ± 0.6
302.84 K | 368.7 ± 0.6
305.11 K | 370 ± 0.6
307.38 K | 371.1 ± 0.6
309.64 K | 372.6 ± 0.6
311.9 K | 373.5 ± 0.6
314.16 K | 374.2 ± 0.6
316.43 K | 375.5 ± 0.6
318.69 K | 376.9 ± 0.6
320.95 K | 377.9 ± 0.6
323.2 K | 378.9 ± 0.6
325.45 K | 379.6 ± 0.6
327.7 K | 381.1 ± 0.6
329.95 K | 381.9 ± 0.6
332.2 K | 382.6 ± 0.6
334.45 K | 384.1 ± 0.6
336.69 K | 384.9 ± 0.6
338.94 K | 386 ± 0.6
341.18 K | 387.3 ± 0.6
343.42 K | 388.6 ± 0.6
345.66 K | 389.8 ± 0.6
347.9 K | 390.7 ± 0.6
350.14 K | 391.8 ± 0.6
352.38 K | 392.4 ± 0.6
354.62 K | 393.9 ± 0.6
356.85 K | 394.2 ± 0.6
359.08 K | 395.7 ± 0.6
361.31 K | 396.6 ± 0.6
363.54 K | 397.9 ± 0.6
365.76 K | 399 ± 0.6
367.98 K | 400.1 ± 0.6

Source: the NIST ThermoML archive (doi:10.1021/je900974u)
